Measured values reported in US8580794B2 (AbbVie Inc., priority 2009, dated 2013).

target: GST-Bc1-2 (Homo sapiens, UniProt P10415); assay: Time Resolved-Fluorescence Resonance Energy Transfer (TR-FRET) Bcl-2 binding assay with F-Bak peptide probe; conditions: GST-Bcl-2 1 nM, F-Bak probe 100 nM, Tb-anti-GST 1 nM; '<' = below limit of detection; read-out: TR-FRET Bcl-2 Binding Ki
Sequence (P10415 whole entry): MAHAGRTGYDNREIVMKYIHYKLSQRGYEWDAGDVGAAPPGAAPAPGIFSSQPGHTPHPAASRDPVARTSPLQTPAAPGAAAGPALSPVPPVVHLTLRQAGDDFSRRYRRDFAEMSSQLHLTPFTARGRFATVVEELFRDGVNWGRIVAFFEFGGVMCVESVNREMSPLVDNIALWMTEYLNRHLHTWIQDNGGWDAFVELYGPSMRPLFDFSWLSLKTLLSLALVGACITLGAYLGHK

| Compound | Ki |
| --- | --- |
| CN1CCN(Nc2ccc(S(=O)(=O)NC(=O)c3ccc(N4CCN(CC5=C(c6ccc(Cl)cc6)CC(C)(C)OC5)CC4)cc3Oc3cnc4[nH]ccc4c3)cc2[N+](=O)[O-])CC1 [Example 67, 4-(4-{[4-(4-chlorophenyl)-6,6-dimethyl-5,6-dihydro-2H-pyran-3-yl]methyl}piperazin-1-yl)-N-({4-[(4-methylpiperazin-1-yl)amino]-3-nitrophenyl}sulfonyl)-2-(1H-pyrrolo[2,3-b]pyridin-5-yloxy)benzamide] | < 0.01 nM |
| CC1(C)CCC(CN2CCN(c3ccc(C(=O)NS(=O)(=O)c4ccc(OCC#CCN5CCOCC5)c([N+](=O)[O-])c4)c(Oc4cnc5[nH]ccc5c4)c3)CC2)=C(c2ccc(Cl)cc2)C1 [Example 68, 4-(4-{[2-(4-chlorophenyl)-4,4-dimethylcyclohex-1-en-1-yl]methyl}piperazin-1-yl)-N-({4-[(4-morpholin-4-ylbut-2-ynyl)oxy]-3-nitrophenyl}sulfonyl)-2-(1H-pyrrolo[2,3-b]pyridin-5-yloxy)benzamide] | 0.012 nM |
| C#Cc1cc(S(=O)(=O)NC(=O)c2ccc(N3CCN(CC4=C(c5ccc(Cl)cc5)CC(C)(C)CC4)CC3)cc2Oc2cnc3[nH]ccc3c2)cnc1OCC1CCOCC1 [Example 69, 4-(4-{[2-(4-chlorophenyl)-4,4-dimethylcyclohex-1-en-1-yl]methyl}piperazin-1-yl)-N-{[5-ethynyl-6-(tetrahydro-2H-pyran-4-ylmethoxy)pyridin-3-yl]sulfonyl}-2-(1H-pyrrolo[2,3-b]pyridin-5-yloxy)benzamide] | 1.16 nM |
| CC1(C)CCC(CN2CCN(c3ccc(C(=O)NS(=O)(=O)c4ccc5nc[nH]c(=O)c5c4)c(Oc4cnc5[nH]ccc5c4)c3)CC2)=C(c2ccc(Cl)cc2)C1 [Example 70, 4-(4-{[2-(4-chlorophenyl)-4,4-dimethylcyclohex-1-en-1-yl]methyl}piperazin-1-yl)-N-[(4-oxo-3,4-dihydroquinazolin-6-yl)sulfonyl]-2-(1H-pyrrolo[2,3-b]pyridin-5-yloxy)benzamide] | 3.96 nM |
| O=C(NS(=O)(=O)c1ccc(N[C@H]2CC[C@H](N3CCOCC3)CC2)c([N+](=O)[O-])c1)c1ccc(N2CCN(CC3=C(c4ccc(Cl)cc4)CCC4(CCCC4)C3)CC2)cc1Oc1cnc2[nH]ccc2c1 [Example 71, Trans-4-(4-{[8-(4-chlorophenyl)spiro[4.5]dec-7-en-7-yl]methyl}piperazin-1-yl)-N-({4-[(4-morpholin-4-ylcyclohexyl)amino]-3-nitrophenyl}sulfonyl)-2-(1H-pyrrolo[2,3-b]pyridin-5-yloxy)benzamide] | 0.01 nM |
| CO[C@H]1CC[C@@H](CNc2ccc(S(=O)(=O)NC(=O)c3ccc(N4CCN(CC5=C(c6ccc(Cl)cc6)CC(C)(C)OC5)CC4)cc3Oc3cnc4[nH]ccc4c3)cc2[N+](=O)[O-])CC1 [Example 72, Cis-4-(4-{[4-(4-chlorophenyl)-6,6-dimethyl-5,6-dihydro-2H-pyran-3-yl]methyl}piperazin-1-yl)-N-[(4-{[(4-methoxycyclohexyl)methyl]amino}-3-nitrophenyl)sulfonyl]-2-(1H-pyrrolo[2,3-b]pyridin-5-yloxy)benzamide] | < 0.01 nM |
| O=C(NS(=O)(=O)c1ccc(OCC2(F)CCOCC2)c([N+](=O)[O-])c1)c1ccc(N2CCN(CC3=C(c4ccc(Cl)cc4)CCC4(CCCC4)C3)CC2)cc1Oc1cnc2[nH]ccc2c1 [Example 73, 4-(4-{[8-(4-chlorophenyl)spiro[4.5]dec-7-en-7-yl]methyl}piperazin-1-yl)-N-({4-[(4-fluorotetrahydro-2H-pyran-4-yl)methoxy]-3-nitrophenyl}sulfonyl)-2-(1H-pyrrolo[2,3-b]pyridin-5-yloxy)benzamide] | < 0.01 nM |
| CC1(C)CCC(c2ccc(Cl)cc2)=C(CN2CCN(c3ccc(C(=O)NS(=O)(=O)c4ccc(NCC5CCOCC5)c([N+](=O)[O-])c4)c(Oc4cnc5[nH]ccc5c4)c3)CC2)C1 [Example 75, 4-(4-{[2-(4-chlorophenyl)-5,5-dimethylcyclohex-1-en-1-yl]methyl}piperazin-1-yl)-N-({3-nitro-4-[(tetrahydro-2H-pyran-4-ylmethyl)amino]phenyl}sulfonyl)-2-(1H-pyrrolo[2,3-b]pyridin-5-yloxy)benzamide] | < 0.01 nM |
| CC1(C)CCC(c2ccc(Cl)cc2)=C(CN2CCN(c3ccc(C(=O)NS(=O)(=O)c4cnc(OCC5CCOCC5)c(C#N)c4)c(Oc4cnc5[nH]ccc5c4)c3)CC2)C1 [Example 76, 4-(4-{[2-(4-chlorophenyl)-5,5-dimethylcyclohex-1-en-1-yl]methyl}piperazin-1-yl)-N-{[5-cyano-6-(tetrahydro-2H-pyran-4-ylmethoxy)pyridin-3-yl]sulfonyl}-2-(1H-pyrrolo[2,3-b]pyridin-5-yloxy)benzamide] | 0.196 nM |
| CC1(C)CCC(CN2CCN(c3ccc(C(=O)NS(=O)(=O)c4ccc(OCC5COCCN5C(=O)OC(C)(C)C)c([N+](=O)[O-])c4)c(Oc4cnc5[nH]ccc5c4)c3)CC2)=C(c2ccc(Cl)cc2)C1 (centres unmarked) [Example 77, tert-butyl 3-{[4-({[4-(4-{[2-(4-chlorophenyl)-4,4-dimethylcyclohex-1-en-1-yl]methyl}piperazin-1-yl)-2-(1H-pyrrolo[2,3-b]pyridin-5-yloxy)benzoyl]amino}sulfonyl)-2-nitrophenoxy]methyl}morpholine-4-carboxylate] | 0.213 nM |
| CC1(C)CCC(CN2CCN(c3ccc(C(=O)NS(=O)(=O)c4ccc(OCC5COCCN5)c([N+](=O)[O-])c4)c(Oc4cnc5[nH]ccc5c4)c3)CC2)=C(c2ccc(Cl)cc2)C1 (centres unmarked) [Example 78, 4-(4-{[2-(4-chlorophenyl)-4,4-dimethylcyclohex-1-en-1-yl]methyl}piperazin-1-yl)-N-{[4-(morpholin-3-ylmethoxy)-3-nitrophenyl]sulfonyl}-2-(1H-pyrrolo[2,3-b]pyridin-5-yloxy)benzamide] | < 0.01 nM |
| O=C(NS(=O)(=O)c1ccc(NCC2CCOCC2)c([N+](=O)[O-])c1)c1ccc(N2CCN(CC3=C(c4ccc(Cl)cc4)CCC4(CCCC4)C3)CC2)cc1Oc1cnc2[nH]ccc2c1 [Example 79, 4-(4-{[8-(4-chlorophenyl)spiro[4.5]dec-7-en-7-yl]methyl}piperazin-1-yl)-N-({3-nitro-4-[(tetrahydro-2H-pyran-4-ylmethyl)amino]phenyl}sulfonyl)-2-(1H-pyrrolo[2,3-b]pyridin-5-yloxy)benzamide] | < 0.01 nM |
| CC1(C)CCC(CN2CCN(c3ccc(C(=O)NS(=O)(=O)c4ccc(NC5CCN(S(C)(=O)=O)CC5)c([N+](=O)[O-])c4)c(Oc4cnc5[nH]ccc5c4)c3)CC2)=C(c2ccc(Cl)cc2)C1 [Example 80, 4-(4-{[2-(4-chlorophenyl)-4,4-dimethylcyclohex-1-en-1-yl]methyl}piperazin-1-yl)-N-[(4-{[1-(methylsulfonyl)piperidin-4-yl]amino}-3-nitrophenyl)sulfonyl]-2-(1H-pyrrolo[2,3-b]pyridin-5-yloxy)benzamide] | < 0.01 nM |
| CC1(C)CCC(CN2CCN(c3ccc(C(=O)NS(=O)(=O)c4ccc(NC5CCS(=O)(=O)CC5)c([N+](=O)[O-])c4)c(Oc4cnc5[nH]ccc5c4)c3)CC2)=C(c2ccc(Cl)cc2)C1 [Example 81, 4-(4-{[2-(4-chlorophenyl)-4,4-dimethylcyclohex-1-en-1-yl]methyl}piperazin-1-yl)-N-({4-[(1,1-dioxidotetrahydro-2H-thiopyran-4-yl)amino]-3-nitrophenyl}sulfonyl)-2-(1H-pyrrolo[2,3-b]pyridin-5-yloxy)benzamide] | < 0.01 nM |
